Measured values: patent US20260151375A1, “CDK2 INHIBITORS AND METHODS OF USING THE SAME” (Cedilla Therapeutics, Inc., priority 2022, published 2026)

How the values were obtained:
CDK2/Cyclin E1 = molecular target: T1, CDK2/Cyclin E1 (Homo sapiens, UniProt P24941); assay: Caliper Assay (LabChip EZ Reader mobility shift assay), inhibition of CDK2/Cyclin E1 activity; type: biochemical; details: 2.5 nM CDK2/Cyclin E1(14-475), 100 μM ATP, 30 min preincubation; read-out: Caliper Assay (CDK2/CCNE1): IC50
T1 construct: purchased 14-475
Experimental: Inhibition of CDK2/Cyclin E1 activity in the presence of compounds of the present disclosure was evaluated using a Caliper LabChip® EZ Reader mobility shift assay. In the assay, activated CDK2/Cyclin E1 catalyzes the phosphorylation of a fluorescently tagged peptide 5-FAM-QSPKKG-CONH2 (PerkinElmer, FL Peptide 18) which induces a difference in capillary electrophoresis mobility. The peptide substrate and product were measured, and the conversion ratio was used to determine the inhibition (as % activity and IC50 values) of CDK2/Cyclin E1. Reactions contained 50 mM HEPES pH 7.5, 10 mM MgCl2, 1 mM EDTA, 2 mM DTT, 0.01% Brij35, 0.5 mg/mL BSA, 0.1% DMSO, 2.5 nM CDK2/Cyclin E1(14-475), 100 μM ATP, and 1.5 μM fluorescent peptide substrate.
Dose titrations of inhibitors in 100% DMSO were combined with 3.25 nM CDK2/Cyclin E1(14-475) and 130 μM of ATP in reaction buffer. The mixtures were incubated for 30 minutes before the addition of fluorescent peptide substrate to initiate the kinase reaction. The final conditions were 2.5 nM CDK2/Cyclin E1(14-475), 100 μM ATP, and 1.5 μM fluorescent peptide. The reactions were stopped after 100 minutes with the addition of EDTA (6 mM final EDTA concentration). The stopped reactions were analyzed on a Caliper LabChip© EZ Reader II. The conversion ratios were normalized to yield % activity, plotted against compound concentration, and fit to a four-parameter equation to determine the IC50 for each compound.

Kuramochi cells = assay: IncuCyte Kuramochi Assay (cell proliferation); type: cell-based; details: 72 h, Kuramochi cells labeled with mApple-H2B, cell count, read-out: IncuCyte - Kuramochi RB-WT: IC50
Experimental: IncuCyte® assay was used to measure the effect of disclosed compounds on cell proliferation. Fluorescent microscopy images of cells were taken immediately after compound treatment and 72 hours later. Image analysis software was used to obtain cell counts as a function of compound concentration. Kuramochi cells labeled with mApple-H2B were seeded on 384-well assay-ready plates. Plates were placed in an IncuCyte® (Sartorius) and scanned at 0 and 72 hours. IncuCyte® software was used to count the number of fluorescent nuclei in each well. The fold change in cell count from 0 to 72 hours in wells treated with increasing compounds concentrations (10 pts, ½ log dilution, 20 μM top concentration) was normalized to DMSO control wells. The normalized cell counts were fit with dose response curves and a […] was calculated.

Compound | IC50 (CDK2/Cyclin E1) | IC50 (Kuramochi cells)
CC1(C)C[C@@H]1C(=O)N1CC2(CN(C(=O)c3cncs3)CC2c2nnc(C(F)(F)c3ccc(Cl)cc3)o2)C1 (stereo partly drawn) [I-65] | 1 to 10 µM | > 10 µM
CC1(C)C[C@@H]1C(=O)N1CC2(CN(C(=O)c3cncs3)CC2c2nnc(Cc3nc4ccccc4o3)o2)C1 (stereo partly drawn) [I-67] | 1 to 10 µM | > 10 µM
CC1(C)C[C@@H]1C(=O)N1CC2(CN(C(=O)c3cncs3)CC2c2nnc(C(F)(F)c3ccccc3)o2)C1 (stereo partly drawn) [I-70] | 1 to 10 µM | > 10 µM
CC1(C)C[C@@H]1C(=O)N1CC2(CN(C(=O)c3cncs3)CC2c2nnc(Cc3ccc4c(c3)CCCO4)o2)C1 (stereo partly drawn) [I-71] | 1 to 10 µM | > 10 µM
CC1(C)C[C@@H]1C(=O)N1CC2(CN(C(=O)c3cncs3)CC2c2nnc(C(F)(F)c3ccc(C#N)cc3)o2)C1 (stereo partly drawn) [I-72] | 1 to 10 µM | > 10 µM
CC(c1nc(C2CN(C(=O)c3cncs3)CC23CN(C(=O)[C@H]2CC2(C)C)C3)no1)n1ncc2ccccc21 (stereo partly drawn) [I-74] | 1 to 10 µM | > 10 µM
CC(c1cc[nH]n1)c1nc(C2CN(C(=O)c3cncs3)CC23CN(C(=O)[C@H]2CC2(C)C)C3)no1 (stereo partly drawn) [I-77, (8-(5-(1-(1H-pyrazol-3-yl)ethyl)-1,2,4-oxadiazol-3-yl)-2-((S)-2,2-dimethylcyclopropane-1-carbonyl)-2,6-diazaspiro[3.4]octan-6-yl)(thiazol-5-yl)methanone] | 1 to 10 µM | > 10 µM
CC(C)(c1cc[nH]n1)c1nc(C2CN(C(=O)c3cncs3)CC23CN(C(=O)[C@H]2CC2(C)C)C3)no1 (stereo partly drawn) [I-79] | 1 to 10 µM | > 10 µM
O=C(c1cncs1)N1CC(c2nnc(Cc3cccc(C4CCOCC4)n3)o2)C2(C1)CN(c1ncco1)C2 (stereo not drawn) [I-80] | > 10 µM | > 10 µM
CC(c1nc(C2CN(C(=O)c3cncs3)CC23CN(C(=O)[C@H]2CC2(C)C)C3)no1)n1nc(Cl)cc1Cl (stereo partly drawn) [I-81] | 1 to 10 µM | 0.5 to 5 µM
CC1(C)C[C@@H]1C(=O)N1CC2(CN(C(=O)c3cnn(Cc4ccccc4)c3)CC2c2noc(COC3CCCC3)n2)C1 (stereo partly drawn) [I-84] | 1 to 10 µM | > 10 µM
Cc1cc(C)n(Cc2nc(C3CN(C(=O)c4cnn(Cc5ccccc5)c4)CC34CN(C(=O)[C@H]3CC3(C)C)C4)no2)n1 (stereo partly drawn) [I-85] | 1 to 10 µM | > 10 µM
COC(=O)c1coc(C2CN(C(=O)c3cnn(Cc4ccccc4)c3)CC23CN(C(=O)[C@H]2CC2(C)C)C3)n1 (stereo partly drawn) [I-86, methyl 2-(6-(1-benzyl-1H-pyrazole-4-carbonyl)-2-((S)-2,2-dimethylcyclopropane-1-carbonyl)-2,6-diazaspiro[3.4]octan-8-yl)oxazole-4-carboxylate] | > 10 µM | > 10 µM
CC1(C)C[C@@H]1C(=O)N1CC2(CN(C(=O)c3cnn(Cc4ccccc4)c3)CC2c2ccc(NC(=O)C3CCCCC3)cc2)C1 (stereo partly drawn) [I-87, N-(4-(6-(1-benzyl-1H-pyrazole-4-carbonyl)-2-((S)-2,2-dimethylcyclopropane-1-carbonyl)-2,6-diazaspiro[3.4]octan-8-yl)phenyl)cyclohexanecarboxamide] | 1 to 10 µM | 5 to 10 µM
C[C@H](NC(=O)c1coc(C2CN(C(=O)c3cnn(Cc4ccccc4)c3)CC23CN(C(=O)[C@H]2CC2(C)C)C3)n1)c1ccccc1 (stereo partly drawn) [I-88] | 0.1 to 1 µM | > 10 µM
C[C@H](NC(=O)c1coc(C2CN(C(=O)c3cnn(Cc4ccccc4)c3)CC23CN(C(=O)[C@H]2CC2(C)C)C3)n1)C1CCCCC1 (stereo partly drawn) [I-89] | 0.1 to 1 µM | 5 to 10 µM
CC1(C)C[C@@H]1C(=O)N1CC2(CN(C(=O)c3cnn(Cc4ccccc4)c3)CC2c2nc(C(=O)NCc3ccccc3)co2)C1 (stereo partly drawn) [I-91, N-benzyl-2-(6-(1-benzyl-1H-pyrazole-4-carbonyl)-2-((S)-2,2-dimethylcyclopropane-1-carbonyl)-2,6-diazaspiro[3.4]octan-8-yl)oxazole-4-carboxamide] | 0.1 to 1 µM | > 10 µM
CC1(C)C[C@@H]1C(=O)N1CC2(CN(C(=O)c3cnn(Cc4ccccc4)c3)CC2c2ccc(NCc3ccccc3)cc2)C1 (stereo partly drawn) [I-93, (1-benzyl-1H-pyrazol-4-yl)(8-(4-(benzylamino)phenyl)-2-((S)-2,2-dimethylcyclopropane-1-carbonyl)-2,6-diazaspiro[3.4]octan-6-yl)methanone] | 1 to 10 µM | 5 to 10 µM
CC1(C)C[C@@H]1C(=O)N1CC2(CN(C(=O)c3cncs3)CC2c2nnc(C3(c4cccc(C5CCOCC5)n4)COC3)o2)C1 (stereo partly drawn) [I-97] | 0.1 to 1 µM | > 10 µM
CC1(C)C[C@@H]1C(=O)N1CC2(C1)CN(c1cccc3ncsc13)CC2c1nnc(C(F)(F)c2ccc(Cl)c(Cl)c2)o1 (stereo partly drawn) [I-98, (6-(benzo[d]thiazol-7-yl)-8-(5-((3,4-dichlorophenyl)difluoromethyl)-1,3,4-oxadiazol-2-yl)-2,6-diazaspiro[3.4]octan-2-yl)((S)-2,2-dimethylcyclopropyl)methanone] | > 10 µM | > 10 µM
O=C(c1cncs1)N1CC(c2nnc(Cc3ccc(Cl)c(Cl)c3)o2)C2(C1)CN(c1nccc(C(F)(F)F)n1)C2 (stereo not drawn) [I-99] | > 10 µM | > 10 µM

More lines, main results first:

IC50 (CDK2/Cyclin E1) | Compound | IC50 (Kuramochi cells)
0.1 to 1 µM | Cc1nc(C)c(C(=O)N2CC(c3nnc(Cc4cccc(C5CCOCC5)n4)o3)C3(C2)CN(C(=O)[C@H]2CC2(C)C)C3)s1 (stereo partly drawn) [I-66, (2-((S)-2,2-dimethylcyclopropane-1-carbonyl)-8-(5-((6-(tetrahydro-2H-pyran-4-yl)pyridin-2-yl)methyl)-1,3,4-oxadiazol-2-yl)-2,6-diazaspiro[3.4]octan-6-yl)(2,4-dimethylthiazol-5-yl)methanone] | > 10 µM
0.1 to 1 µM | COc1ccc(C(F)(F)c2nnc(C3CN(C(=O)c4cncs4)CC34CN(C(=O)[C@H]3CC3(C)C)C4)o2)cc1 (stereo partly drawn) [I-68] | > 10 µM
0.1 to 1 µM | CC1(C)C[C@@H]1C(=O)N1CC2(CN(C(=O)c3cncs3)CC2c2nnc(C(F)(F)c3ccc(Br)cc3)o2)C1 (stereo partly drawn) [I-69] | > 10 µM
0.1 to 1 µM | CC1(C)C[C@@H]1C(=O)N1CC2(CN(C(=O)c3cncs3)CC2c2nnc(C(F)(F)c3cccc4ccccc34)o2)C1 (stereo partly drawn) [I-73] | > 10 µM
0.1 to 1 µM | CC(c1nc(C2CN(C(=O)c3cncs3)CC23CN(C(=O)[C@H]2CC2(C)C)C3)no1)n1cc2ccccc2n1 (stereo partly drawn) [I-75] | > 10 µM
0.1 to 1 µM | CC1(C)C[C@@H]1C(=O)N1CC2(CN(C(=O)c3cncs3)CC2c2nnc(C(F)(F)c3ccc(F)c(F)c3)o2)C1 (stereo partly drawn) [I-76] | > 10 µM
0.1 to 1 µM | CC(c1cccc(C2CCOCC2)n1)c1nnc(C2CN(C(=O)c3cncs3)CC23CN(C(=O)[C@H]2CC2(C)C)C3)o1 (stereo partly drawn) [I-78] | > 10 µM
0.1 to 1 µM | CC(c1nc(C2CN(C(=O)c3cncs3)CC23CN(C(=O)[C@H]2CC2(C)C)C3)no1)n1ccc(C2CCOCC2)n1 (stereo partly drawn) [I-82] | > 10 µM
0.1 to 1 µM | CC1(C)C[C@@H]1C(=O)N1CC2(CN(C(=O)c3cncs3)CC2c2nnc(Cc3cccc(C4CCCCO4)n3)o2)C1 (stereo partly drawn) [I-83] | > 10 µM
0.01 to 0.1 µM | C[C@@H](NC(=O)c1coc(C2CN(C(=O)c3cnn(Cc4ccccc4)c3)CC23CN(C(=O)[C@H]2CC2(C)C)C3)n1)C1CCCCC1 (stereo partly drawn) [I-90] | 5 to 10 µM
0.01 to 0.1 µM | CC1(C)C[C@@H]1C(=O)N1CC2(CN(C(=O)c3cnn(Cc4ccccc4)c3)CC2c2nc(C(=O)NCC3CCCCC3)co2)C1 (stereo partly drawn) [I-92] | 5 to 10 µM
0.01 to 0.1 µM | CC(c1nnc(C2CN(C(=O)c3cncs3)CC23CN(C(=O)[C@H]2CC2(C)C)C3)o1)n1ccc(C2CCCC2)n1 (stereo partly drawn) [I-96] | > 10 µM
